Laboratory results taken from US9604961B2, “Histone demethylase inhibitors” (Celgene Quanticel Research, Inc., priority 2012, dated 2017).

Legend:
JMJD2C = JMJD2C (Homo sapiens (Human), UniProt Q9H3R0); experiment: JMJD2C in vitro enzyme inhibition assay (TR-FRET); format: biochemical
FBXL10 = FBXL10 (Homo sapiens (Human), UniProt Q8NHM5); experiment: FBXL10 in vitro enzyme inhibition assay (AlphaScreen); format: biochemical
Description: Reaction product was determined quantitatively by AlphaScreen detection after the addition of detection reagents anti-H3K36me1 antibody, AlphaScreen® Streptavidin-coated Donor beads, and AlphaScreen® Protein A Acceptor beads in 50 mM HEPES, pH7.3, 10 mM NaCl, 0.005% Brij35, 5 mM EDTA, 2 mg/ml BSA to final 10 μg/ml beads.
Plates were incubated at room temperature for 40 minutes, followed by addition of 3 μl of 50 μg/ml AlphaScreen® Streptavidin-coated Donor beads and AlphaScreen® Protein A Acceptor beads in 50 mM HEPES, pH7.3, 10 mM NaCl, 0.005% Brij35, 5 mM EDTA, 2 mg/ml BSA. Plates were read by EnVisionMultilabel Reader in AlphaScreen mode after a minimum of 2 hour or up to overnight incubation at room temperature. The AlphaScreen signal for each well was used to determine inhibition constant (IC50).

Jarid1B = Jarid1B (Homo sapiens (Human), UniProt Q9UGL1); experiment: Jarid1B in vitro enzyme inhibition assay (TR-FRET); format: biochemical
Sequence of Jarid1B (Q9UGL1 2-751): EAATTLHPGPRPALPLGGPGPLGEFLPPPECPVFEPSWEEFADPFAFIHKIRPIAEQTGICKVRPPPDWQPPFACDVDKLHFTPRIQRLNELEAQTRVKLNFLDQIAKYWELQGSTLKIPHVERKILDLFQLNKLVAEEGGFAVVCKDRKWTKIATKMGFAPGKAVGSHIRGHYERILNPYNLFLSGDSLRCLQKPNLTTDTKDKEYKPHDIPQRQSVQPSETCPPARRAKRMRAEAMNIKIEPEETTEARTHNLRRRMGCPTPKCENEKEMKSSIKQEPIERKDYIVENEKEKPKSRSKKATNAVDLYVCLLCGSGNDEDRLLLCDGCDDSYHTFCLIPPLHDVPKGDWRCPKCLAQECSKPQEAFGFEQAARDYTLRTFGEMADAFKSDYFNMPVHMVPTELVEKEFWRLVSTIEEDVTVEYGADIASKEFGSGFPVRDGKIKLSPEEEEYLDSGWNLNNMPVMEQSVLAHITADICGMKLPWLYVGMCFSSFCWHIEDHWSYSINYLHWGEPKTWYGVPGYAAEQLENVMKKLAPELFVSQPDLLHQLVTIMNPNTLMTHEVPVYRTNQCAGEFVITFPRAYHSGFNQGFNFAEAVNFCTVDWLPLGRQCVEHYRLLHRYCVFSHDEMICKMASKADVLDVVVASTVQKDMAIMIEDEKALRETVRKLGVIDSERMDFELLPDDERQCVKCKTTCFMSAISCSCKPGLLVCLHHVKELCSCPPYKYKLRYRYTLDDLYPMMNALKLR

Jarid1A = Jarid1A (Homo sapiens (Human), UniProt P29375); experiment: Jarid1A in vitro enzyme inhibition assay (TR-FRET); format: biochemical
Sequence of Jarid1A (P29375 1-1090): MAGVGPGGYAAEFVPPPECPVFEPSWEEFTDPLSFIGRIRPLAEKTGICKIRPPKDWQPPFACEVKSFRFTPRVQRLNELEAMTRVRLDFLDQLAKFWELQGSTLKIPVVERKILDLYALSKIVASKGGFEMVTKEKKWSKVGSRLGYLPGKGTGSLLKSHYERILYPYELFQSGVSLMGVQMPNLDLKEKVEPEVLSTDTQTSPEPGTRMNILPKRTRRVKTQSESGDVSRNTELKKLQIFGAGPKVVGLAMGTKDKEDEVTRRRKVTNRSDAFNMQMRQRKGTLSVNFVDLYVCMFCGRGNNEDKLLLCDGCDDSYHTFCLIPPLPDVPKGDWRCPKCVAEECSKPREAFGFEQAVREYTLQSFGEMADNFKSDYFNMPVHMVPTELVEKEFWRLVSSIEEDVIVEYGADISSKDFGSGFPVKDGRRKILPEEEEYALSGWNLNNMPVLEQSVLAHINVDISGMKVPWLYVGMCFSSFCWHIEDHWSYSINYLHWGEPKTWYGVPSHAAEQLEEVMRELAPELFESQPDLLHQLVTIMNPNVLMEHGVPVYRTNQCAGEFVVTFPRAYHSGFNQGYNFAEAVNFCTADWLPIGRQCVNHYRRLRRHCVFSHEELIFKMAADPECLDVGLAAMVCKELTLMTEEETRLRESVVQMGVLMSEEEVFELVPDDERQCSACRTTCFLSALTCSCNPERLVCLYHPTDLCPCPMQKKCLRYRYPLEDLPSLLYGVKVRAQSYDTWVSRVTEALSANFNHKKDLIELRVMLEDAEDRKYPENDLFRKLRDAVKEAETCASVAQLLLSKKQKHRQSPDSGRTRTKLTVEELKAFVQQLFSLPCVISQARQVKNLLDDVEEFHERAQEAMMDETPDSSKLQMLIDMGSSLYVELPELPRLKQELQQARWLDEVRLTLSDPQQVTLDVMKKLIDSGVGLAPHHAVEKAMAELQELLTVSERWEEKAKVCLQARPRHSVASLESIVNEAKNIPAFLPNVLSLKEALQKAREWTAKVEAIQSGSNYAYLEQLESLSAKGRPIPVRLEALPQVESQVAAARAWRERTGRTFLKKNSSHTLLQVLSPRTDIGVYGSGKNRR
Text: The enzymatic assay of Jarid1A activity is based upon Time Resolved-Fluorescence Resonance Energy Transfer (TR-FRET) detection.

JMJD2A = JMJD2A (Homo sapiens (Human), UniProt O75164); experiment: JMJD2A in vitro enzyme inhibition assay (TR-FRET); conditions: read-out: JMJD2A IC50
Sequence of JMJD2A (O75164 1-350): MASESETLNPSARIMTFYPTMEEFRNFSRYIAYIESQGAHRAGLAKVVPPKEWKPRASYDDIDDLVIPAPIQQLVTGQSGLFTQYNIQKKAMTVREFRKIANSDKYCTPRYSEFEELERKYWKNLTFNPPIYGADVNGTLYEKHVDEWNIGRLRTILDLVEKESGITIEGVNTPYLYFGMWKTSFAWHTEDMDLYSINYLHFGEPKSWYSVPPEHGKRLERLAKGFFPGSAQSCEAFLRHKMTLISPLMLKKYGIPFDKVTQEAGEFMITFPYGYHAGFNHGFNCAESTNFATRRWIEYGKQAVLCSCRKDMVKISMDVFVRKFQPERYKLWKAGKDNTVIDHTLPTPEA
Description: This assay determines the ability of a test compound to inhibit Jarid1A, Jarid1B, JMJD2C, and JMJD2A demethylase activity.
Reaction product was determined quantitatively by TR-FRET after the addition of detection reagent Phycolink Streptavidin-allophycocyanin (Prozyme) and Europium-anti-di-methylated histone H3 lysine 9 (H3K9me2) antibody (PerkinElmer) in the presence of 5 mM EDTA in LANCE detection buffer (PerkinElmer) at a final concentration of 50 nM and 1 nM, respectively.
The assay reaction was initiated by the following: 2 μl of the mixture of 900 nM H3K9me3-biotin labeled peptide and 6 μM alpha-ketoglutaric acid with 2 μl of 11-point serial diluted inhibitor in 3% DMSO were added to each well of plate, followed by the addition of 2 μl of 6 nM JMJD2A to initiate the reaction. The reaction mixture was incubated at room temperature for 30 minutes, and terminated by the addition of 6 μl of 5 mM EDTA in LANCE detection buffer containing 100 nM Phycolink Streptavidin-allophycocyanin and 2 nM Europium-anti-H3K9me2 antibody.

Sequence of FBXL10 (Q8NHM5 1-650): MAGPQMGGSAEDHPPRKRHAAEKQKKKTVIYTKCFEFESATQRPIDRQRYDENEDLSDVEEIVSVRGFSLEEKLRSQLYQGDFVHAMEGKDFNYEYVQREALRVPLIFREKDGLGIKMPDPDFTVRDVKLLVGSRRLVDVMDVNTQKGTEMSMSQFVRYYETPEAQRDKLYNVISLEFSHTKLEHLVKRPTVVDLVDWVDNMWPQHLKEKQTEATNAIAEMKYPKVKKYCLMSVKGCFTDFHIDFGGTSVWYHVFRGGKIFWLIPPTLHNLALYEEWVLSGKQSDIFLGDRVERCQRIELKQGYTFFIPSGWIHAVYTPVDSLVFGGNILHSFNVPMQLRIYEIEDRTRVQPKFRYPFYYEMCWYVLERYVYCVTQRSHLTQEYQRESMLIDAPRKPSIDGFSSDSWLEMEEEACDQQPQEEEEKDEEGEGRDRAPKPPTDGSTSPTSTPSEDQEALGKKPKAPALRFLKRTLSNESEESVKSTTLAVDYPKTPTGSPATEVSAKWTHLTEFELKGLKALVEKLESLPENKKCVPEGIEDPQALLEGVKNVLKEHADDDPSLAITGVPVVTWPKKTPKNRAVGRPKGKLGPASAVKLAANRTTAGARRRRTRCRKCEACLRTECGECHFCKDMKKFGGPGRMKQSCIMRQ
Sequence of JMJD2C (Q9H3R0 2-372): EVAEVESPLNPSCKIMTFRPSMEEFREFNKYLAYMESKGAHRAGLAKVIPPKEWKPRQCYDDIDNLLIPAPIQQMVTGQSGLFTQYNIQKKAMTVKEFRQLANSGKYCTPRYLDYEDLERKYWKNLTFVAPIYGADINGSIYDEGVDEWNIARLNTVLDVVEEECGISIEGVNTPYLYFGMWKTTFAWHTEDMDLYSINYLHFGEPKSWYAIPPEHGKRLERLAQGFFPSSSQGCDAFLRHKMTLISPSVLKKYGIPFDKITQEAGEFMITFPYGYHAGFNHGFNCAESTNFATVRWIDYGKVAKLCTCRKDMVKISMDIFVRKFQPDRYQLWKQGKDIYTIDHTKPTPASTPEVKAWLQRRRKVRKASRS

Structure (SMILES)	IC50 (JMJD2C) [nM]	IC50 (FBXL10) [nM]	IC50 (Jarid1B) [nM]	IC50 (Jarid1A) [nM]	IC50 (JMJD2A) [nM]
O=C(O)c1ccnc(-n2nc(C3CC3)cc2O)c1 [Example 2, 2-(3-cyclopropyl-5-hydroxy-1H-pyrazol-1-yl)isonicotinic acid]	100 to 1000	< 100	< 100	< 100	100 to 1000
Cc1ccc(-c2ccnn2-c2cc(C(=O)O)ccn2)cc1 [Example 12, 2-(5-p-tolyl-1H-pyrazol-1-yl)isonicotinic acid]	100 to 1000		100 to 1000	100 to 1000	100 to 1000
O=C(O)c1ccnc(-n2nccc2-c2ccc(F)cc2F)c1 [Example 14, 2-(5-(2,4-difluorophenyl)-1H-pyrazol-1-yl)isonicotinic acid]	100 to 1000		100 to 1000	100 to 1000	100 to 1000
O=C(O)c1ccnc(-n2nccc2-c2cccc(O)c2)c1 [Example 17, 2-(5-(3-hydroxyphenyl)-1H-pyrazol-1-yl)isonicotinic acid]	100 to 1000		100 to 1000	100 to 1000	100 to 1000
O=C(O)c1ccnc(-n2nccc2-c2ccc(F)cc2)c1 [Example 27, 2-(5-(4-fluorophenyl)-1H-pyrazol-1-yl)isonicotinic acid]	100 to 1000	> 10000	100 to 1000	100 to 1000	
O=C(O)c1ccnc(-n2nccc2Cc2ccccc2)c1 [Example 32, 2-(5-benzyl-1H-pyrazol-1-yl)isonicotinic acid]	> 10000	1000 to 10000	> 10000	> 10000	
O=C(O)c1ccnc(-n2ccc(Cc3ccccc3)n2)c1 [Example 33, 2-(3-benzyl-1H-pyrazol-1-yl)isonicotinic acid]	1000 to 10000	1000 to 10000	1000 to 10000	1000 to 10000	
O=C(O)c1ccnc(-n2ccc(CCc3ccccc3)n2)c1 [Example 35, 2-(3-phenethyl-1H-pyrazol-1-yl)isonicotinic acid]	100 to 1000		100 to 1000	100 to 1000	100 to 1000
O=C(O)c1ccnc(-n2nccc2OCc2ccccc2)c1 [Example 39, 2-(5-(benzyloxy)-1H-pyrazol-1-yl)isonicotinic acid]	< 100		< 100	< 100	< 100
O=C(O)c1ccnc(-n2nccc2OCc2ccc(F)cc2)c1 [Example 40, 2-{5-[(4-fluorobenzyl)oxy]-1H-pyrazol-1-yl}pyridine-4-carboxylic acid]	< 100	> 10000	< 100	< 100	
O=C(O)c1ccnc(-n2nccc2OCc2ccc3cn[nH]c3c2)c1 [Example 49, 2-[5-(1H-indazol-6-ylmethoxy)-1H-pyrazol-1-yl]pyridine-4-carboxylic acid]	1000 to 10000	100 to 1000	100 to 1000	100 to 1000	
Cc1ccc(COc2ccnn2-c2cc(C(=O)O)ccn2)cc1 [Example 55, 2-{5-[(4-methylbenzyl)oxy]-1H-pyrazol-1-yl}pyridine-4-carboxylic acid]	< 100	1000 to 10000	< 100	< 100	
CCCCOc1cc(Cl)ccc1COc1ccnn1-c1cc(C(=O)O)ccn1 [Example 111, 2-[5-[(2-butoxy-4-chlorophenyl)methoxy]pyrazol-1-yl]pyridine-4-carboxylic acid]	1000 to 10000	1000 to 10000	100 to 1000	100 to 1000	1000 to 10000
CC(C)COc1cc(Cl)ccc1COc1ccnn1-c1cc(C(=O)O)ccn1 [Example 112, 2-[5-[[4-chloro-2-(2-methylpropoxy)phenyl]methoxy]pyrazol-1-yl]pyridine-4-carboxylic acid]	1000 to 10000	1000 to 10000	100 to 1000	100 to 1000	1000 to 10000
O=C(O)c1ccnc(-n2nccc2OCc2ccc(F)cc2OCc2ccc(F)cc2)c1 [Example 118, 2-[5-[[4-fluoro-2-[(4-fluorophenyl)methoxy]phenyl]methoxy]pyrazol-1-yl]pyridine-4-carboxylic acid]	100 to 1000	1000 to 10000	< 100	< 100	100 to 1000
Cc1ccc(COc2ccnn2-c2cc(C(=O)O)ccn2)c(Cl)c1 [Example 130, 2-[5-[(2-chloro-4-methylphenyl)methoxy]pyrazol-1-yl]pyridine-4-carboxylic acid]	1000 to 10000	1000 to 10000	100 to 1000	100 to 1000	100 to 1000
Cc1ccc(COc2ccnn2-c2cc(C(=O)O)ccn2)c(C)c1 [Example 132, 2-[5-[(2,4-dimethylphenyl)methoxy]pyrazol-1-yl]pyridine-4-carboxylic acid]	100 to 1000	1000 to 10000	< 100	< 100	100 to 1000
O=C(O)c1ccnc(-n2nccc2OCc2ccc(Cl)c(OCC3CC3)c2)c1 [Example 140, 2-[5-[[4-chloro-3-(cyclopropylmethoxy)phenyl]methoxy]pyrazol-1-yl]pyridine-4-carboxylic acid]		1000 to 10000	100 to 1000	100 to 1000	100 to 1000

More lines, now with the values ahead:

IC50 (JMJD2C) [nM]	IC50 (FBXL10) [nM]	IC50 (Jarid1B) [nM]	IC50 (Jarid1A) [nM]	IC50 (JMJD2A) [nM]	Structure (SMILES)
100 to 1000	1000 to 10000	< 100	< 100		CCc1ccc(COc2ccnn2-c2cc(C(=O)O)ccn2)cc1 [Example 56, 2-{5-[(4-ethylbenzyl)oxy]-1H-pyrazol-1-yl}pyridine-4-carboxylic acid]
< 100	1000 to 10000	< 100	< 100		Cc1ccc(COc2ccnn2-c2cc(C(=O)O)ccn2)cc1Cl [Example 92, 2-[5-[(3-chloro-4-methylphenyl)methoxy]pyrazol-1-yl]pyridine-4-carboxylic acid]
< 100	1000 to 10000	< 100	< 100		N#Cc1ccc(COc2ccnn2-c2cc(C(=O)O)ccn2)cc1 [Example 99, 2-[5-[(4-cyanophenyl)methoxy]pyrazol-1-yl]pyridine-4-carboxylic acid]
100 to 1000	100 to 1000	< 100	< 100		O=C(O)c1ccnc(-n2nccc2OCc2ccc(Cl)cc2OCc2ccccc2)c1 [Example 105, 2-[5-[(4-chloro-2-phenylmethoxyphenyl)methoxy]pyrazol-1-yl]pyridine-4-carboxylic acid]
100 to 1000	1000 to 10000	< 100	< 100		O=C(O)c1ccnc(-n2nccc2OCc2ccc(Cl)cc2OCC2CC2)c1 [Example 106, 2-[5-[[4-chloro-2-(cyclopropylmethoxy)phenyl]methoxy]pyrazol-1-yl]pyridine-4-carboxylic acid]
100 to 1000	1000 to 10000	< 100	< 100		O=C(O)c1ccnc(-n2nccc2OCc2ccc(Cl)cc2OCC(F)(F)F)c1 [Example 108, 2-[5-[[4-chloro-2-(2,2,2-trifluoroethoxy)phenyl]methoxy]pyrazol-1-yl]pyridine-4-carboxylic acid]
< 100	> 10000	< 100	< 100		CN(CCc1cnn(-c2cc(C(=O)O)ccn2)c1)Cc1ccc(F)cc1 [Example 156, 2-[4-[2-[(4-fluorophenyl)methyl-methylamino]ethyl]pyrazol-1-yl]pyridine-4-carboxylic acid]
1000 to 10000	< 100	1000 to 10000	1000 to 10000	1000 to 10000	O=C(O)c1ccnc(-n2nc(-c3ccc(Cl)cc3)cc2O)c1 [Example 158, 2-[3-(4-chlorophenyl)-5-hydroxypyrazol-1-yl]pyridine-4-carboxylic acid]
1000 to 10000	< 100	1000 to 10000		> 10000	CC(c1ccccc1)c1cc(O)n(-c2cc(C(=O)O)ccn2)n1 (centres unmarked) [Example 162, 2-[5-hydroxy-3-(1-phenylethyl)pyrazol-1-yl]pyridine-4-carboxylic acid]
1000 to 10000	< 100	1000 to 10000		> 10000	O=C(O)c1ccnc(-n2nc(Cc3ccccc3Cl)cc2O)c1 [Example 163, 2-[3-[(2-chlorophenyl)methyl]-5-hydroxypyrazol-1-yl]pyridine-4-carboxylic acid]
1000 to 10000	< 100	1000 to 10000		> 10000	O=C(O)c1ccnc(-n2nc(Cc3cccc(Cl)c3)cc2O)c1 [Example 164, 2-[3-[(3-chlorophenyl)methyl]-5-hydroxypyrazol-1-yl]pyridine-4-carboxylic acid]
1000 to 10000	< 100	100 to 1000		> 10000	O=C(O)c1ccnc(-n2nc(Cc3ccc(Cl)cc3)cc2O)c1 [Example 165, 2-[3-[(4-chlorophenyl)methyl]-5-hydroxypyrazol-1-yl]pyridine-4-carboxylic acid]
1000 to 10000	< 100	1000 to 10000		> 10000	Oc1cc(Cc2ccc(Cl)cc2)nn1-c1cc(-c2nnn[nH]2)ccn1 [Example 169, 5-[(4-chlorophenyl)methyl]-2-[4-(1H-tetrazol-5-yl)pyridin-2-yl]pyrazol-3-ol]
